In patent publication US4196217A, “Hydroxylated amines with bacteriostatic activity” (priority 1978, dated 1980):
Values joined by “and” are separate entries in the source; they are usually repeats but may differ in a detail not shown here. Identical values can stand only once. Like-named read-outs stand apart in the source and are kept apart here.

What was measured:
Staphyloccus aureus = experiment: bacteriostatic activity (MIC), Staphylococcus aureus; assay type: cell-based; conditions: Staphylococcus aureus, 48 h
Method: (§1) The medium containing the solution to be tested is inoculated in the form of three single striae with a 10^-5 times dilution of a bacterial culture aged 16 to 18 hours grown in salted peptone broth at a temperature of 37° C.
(§2) After inoculation, the media are stored at 37° C. for 48 hours, after which the bacterial growth is inspected. The MIC (minimum inhibiting concentrations) are expressed in micrograms of pure product per cubic centimeter of gelose medium required for inhibiting the culture (μg/cc). The control substance used is benzalconium chloride.
(§3) Tests were also carried out to determine the bacteriostatic activity of other compounds according to the invention by the method described above and in comparison with known substances, in particular with benzalconium chloride (compound T in the Tables).

Pseudomonas aeruginosa = experiment: bacteriostatic activity (MIC), Pseudomonas aeruginosa; assay type: cell-based; conditions: for MIC: Pseudomonas aeruginosa, 48 h
Method: as §1, §2, §3

Enterbacter cloacae = experiment: bacteriostatic activity (MIC), Enterbacter cloacae; assay type: cell-based; conditions: 48 h, Table I, 37° C., read-out: MIC
Method: as §2, with “The medium containing the solution to be tested is inoculated in the form of three single striae with a 10^-5 times dilution of a bacterial culture aged 16 to 18 hours grown in salted peptone broth at a temperature of 37° C. After” for “After”

M pyogenes aureus = experiment: bactericidal activity, M pyogenes aureus; assay type: cell-based; conditions: Table II, 2 hours contact, laboratory temperature; read-out: MIC (bactericidal activity)
Method: Bactericidal activity is determined by the following methods: A titrate suspension of bacteria is brought into contact over a period of 2 hours at the temperature of the laboratory with increasing dilutions of the test product. The number of bacteria still alive are counted after passage through a filtering membrane.

Bacillus pyocyaneus = experiment: MIC study in a solid medium on 35 strains of Bacillus pyocyaneus; assay type: cell-based; conditions: Pseudomonas aeruginosa, majority of 35 strains, read-out: minimum inhibiting concentration
[1] = system: spores of B. subtilis var. Niger; experiment: sporostatic activity (b), porous membrane with rinses; assay type: cell-based
Source text: (b) A porous membrane 0.45μ thick is placed aseptically in a sterile filter support, covered with 10 cc of sterile distilled water containing 1 cc of mother solution of the product, followed by the addition of 1 cc of a suspension of spores of B. subtilis var. Niger containing approximately 40 spores. These liquids are drawn through the membrane, after which the membrane is transferred aseptically to a culture medium and placed in an oven. The operation is recommenced using up to 5 rinses of the membrane per 10 cc of sterile distilled water. The number of colonies developing is then determined.

[2] = acute toxicity, intragastric, rats; conditions: rat, in vivo, po, both after 48 hours and after 14 days
Method: (§4) The LD50 was calculated by the graphic method of J. T. Lichtfield and F. Wilcoxon (J. Pharm. Exp. Ther. 1949, 96: 99-[…]).

[3] = acute toxicity, intragastric, mice; conditions: mouse, in vivo, po, both after 48 hours and after 14 days
Method: as §4

in vivo = conditions: mouse, mice, intravenous, both after 3 minutes and after 14 days
Source text: Acute toxicity was again determined in male mice by intravenous administration.

[4] = Table I, with 20% of serum, 37° C., 48 hours, read-out: MIC
[5] = Table I, without serum, 37° C., 48 hours, read-out: MIC
[6] = Table VI, bacteriostase containing 20% of serum, read-out: M.I.C.

CCCCCCCCCCOCC(O)CN.Cl (centres unmarked) [Compound 1, 3-decyloxy-2-hydroxy-1-aminopropane hydrochloride]
MIC (Staphyloccus aureus; [4]): 120 µg/mL | MIC (Staphyloccus aureus; [5]): 60 µg/mL | MIC (Staphyloccus aureus; [6]): 75 µg/mL | MIC (Pseudomonas aeruginosa; [4]): 150 µg/mL | MIC (Pseudomonas aeruginosa; [5]): 40 µg/mL | MIC (Pseudomonas aeruginosa; [6]): 250 µg/mL | M.I.C. (Pseudomonas aeruginosa; Table VI, bacteriostase containing 20% of serum, hydrochloride): 200 μg/cc and 400 μg/cc and 350 μg/cc | MIC (Enterbacter cloacae; with 20% of serum): 80 µg/mL | MIC (Enterbacter cloacae; without serum): 30 µg/mL | MBC (M pyogenes aureus): 100 µg/mL | MIC (Bacillus pyocyaneus): 62.5 µg/mL | number of colonies (No = 37) ([1]; 0 rinses of the membrane): 3 | number of colonies (No = 37) ([1]; 1 rinse of the membrane): 4 | number of colonies (No = 37) ([1]; 2 rinses of the membrane): 35 | number of colonies (No = 37) ([1]; 3 rinses of the membrane): 38 | number of colonies (No = 37) ([1]; 4 rinses of the membrane): 48 | number of colonies (No = 37) ([1]; 5 rinses of the membrane): 55 | LD50 [2]: 1300 mg/kg | LD50 [3]: 1300 mg/kg | LD50 (in vivo): 54.5 mg/kg
